Measurements from patent US11203613B2, “Peptidomimetic proteasome inhibitors” (CORNELL UNIVERSITY, priority 2017, dated 2021).
Several values for one entry are separate records, joined by “and”; a condition that tells them apart may be missing. Identical values can stand only once. Like-named read-outs stand apart in the source and are kept apart here.

Biological target: Human Constitutive (Hu C-20S) β5 Active Subunit (Homo sapiens, UniProt P28074)
Experiment: IC50 determination, human constitutive 20S proteasome β5c (suc-LLVY-AMC hydrolysis)
Format: biochemical
[1] = Table 3, IC50 against human constitutive β5 active subunit, read-out: Hu-C20S β5

Compound | IC50 [1] [µM] | IC50 (Table 2, several values in a cell are repeat determinations, read-out: Hu c-20S IC50)
Cc1cc(C(=O)N[C@@H](CC(=O)N2CCC[C@@H]2c2ccccc2)C(=O)N[C@@H](C)c2nc3ccccc3[nH]2)no1 [CEN-53, N—((S)-1-(((S)-1-(1H-Benzo[d]imidazol-2-yl)ethyl)amino)-1,4-dioxo-4-((R)-2-phenylpyrrolidin-1-yl)butan-2-yl)-5-methylisoxazole-3-carboxamide] | 9.7 | 
C[C@H](NC(=O)[C@H](CC(=O)N1CCCC1)NC(=O)CCC(C)(C)C)c1ncc(-c2ccc(F)cc2F)[nH]1 [CEN-83, N—((S)-1-(((S)-1-(5-(2,4-Difluorophenyl)-1H-imidazol-2-yl)ethyl)amino)-1,4-dioxo-4-(pyrrolidin-1-yl)butan-2-yl)-4,4-dimethylpentanamide] | 10.3 | 
CC(C)CCC(=O)N[C@@H](CC(=O)N1CCCC1)C(=O)N[C@@H](C)c1ncc(-c2ccc(F)cc2F)[nH]1 [CEN-77, N—((S)-1-(((S)-1-(5-(2,4-Difluorophenyl)-1H-imidazol-2-yl)ethyl)amino)-1,4-dioxo-4-(pyrrolidin-1-yl)butan-2-yl)-4-methylpentanamide] | 10.4 | 
C[C@H](NC(=O)[C@H](CC(=O)N1CCCC[C@@H]1C)NS(=O)(=O)c1ccccc1)c1ncc(-c2ccc(F)cc2F)[nH]1 [CEN-110, (S)—N—((S)-1-(5-(2,4-Difluorophenyl)-1H-imidazol-2-yl)ethyl)-4-((S)-2-methylpiperidin-1-yl)-4-oxo-2-(phenylsulfonamido)butanamide] | 8.1 | 
C[C@H](NC(=O)[C@H](CC(=O)N1CCCC1)NC(=O)CCc1ccccc1)C(=O)NCc1cccc2cc[nH]c12 [CF-503293] |  | 4.06 µM and 11.6 µM and 19.1 µM and 36.7 µM
C[C@H](NC(=O)[C@@H](N)CC(=O)N1CCC[C@@H]1c1ccccc1)c1ncc(-c2ccccc2F)[nH]1 [CEN-74, (S)-2-Amino-N—((S)-1-(5-(2-fluorophenyl)-1H-imidazol-2-yl)ethyl)-4-oxo-4-((R)-2-phenylpyrrolidin-1-yl)butanamide] | 94 | 
CC[C@H]1CCCCN1C(=O)C[C@H](NC(=O)CC1CC1)C(=O)N[C@@H](C)c1nc2c(F)cccc2[nH]1 [CEN-2, (S)-2-(2-Cyclopropylacetamido)-4-((S)-2-ethylpiperidin-1-yl)-N—((S)-1-(4-fluoro-1H-benzo[d]imidazol-2-yl)ethyl)-4-oxobutanamide] | 16.9 | 
C[C@H](NC(=O)[C@H](CC(=O)N1CCCC1C1CC1)NC(=O)C1CC2(COC2)C1)c1nc2cccc(F)c2[nH]1 (stereo partly drawn) [CEN-51, N-((2S)-4-(2-Cyclopropylpyrrolidin-1-yl)-1-(((S)-1-(7-fluoro-1H-benzo[d]imidazol-2-yl)ethyl)amino)-1,4-dioxobutan-2-yl)-2-oxaspiro[3.3]heptane-6-carboxamide] | 15 | 
C[C@H](NC(=O)[C@H](CC(=O)N1CCCC[C@@H]1C)NC(=O)CC1CC1)c1ncc(Cc2ccccc2)[nH]1 [CEN-124, (S)—N—((S)-1-(5-Benzyl-1H-imidazol-2-yl)ethyl)-2-(2-cyclopropylacetamido)-4-((S)-2-methylpiperidin-1-yl)-4-oxobutanamide] | 10.4 | 
CC[C@H]1CCCCN1C(=O)C[C@H](NC(=O)CCN(C)C)C(=O)N[C@@H](C)c1nc2c(F)cccc2[nH]1 [CEN-4, (S)-2-(3-(Dimethylamino)propanamido)-4-((S)-2-ethylpiperidin-1-yl)-N—((S)-1-(4-fluoro-1H-benzo[d]imidazol-2-yl)ethyl)-4-oxobutanamide] | 6.4 | 
CC(C)CCC(=O)N[C@@H](CC(=O)N1CCCCC1)C(=O)N[C@@H](C)c1ncc(-c2ccc(F)cc2F)[nH]1 [CEN-84, N—((S)-1-(((S)-1-(5-(2,4-Difluorophenyl)-1H-imidazol-2-yl)ethyl)amino)-1,4-dioxo-4-(piperidin-1-yl)butan-2-yl)-4-methylpentanamide] | 7.3 | 
C[C@H]1CCCCN1C(=O)C[C@H](NC(=O)C1CC2(C1)CC(F)(F)C2)C(=O)NC1(c2nc3cccc(F)c3[nH]2)CC1 (stereo in doubt) [CEN-62, 6,6-Difluoro-N—((S)-1-((1-(7-fluoro-1H-benzo[d]imidazol-2-yl)cyclopropyl)amino)-4-((S)-2-methylpiperidin-1-yl)-1,4-dioxobutan-2-yl)spiro[3.3]heptane-2-carboxamide] | 2.4 | 
C[C@H](NC(=O)[C@H](CC(=O)N1CCC[C@H]1c1ccccc1)NC(=O)C1CC2(COC2)C1)c1nc2cccc(F)c2[nH]1 [CEN-63, N—((S)-1-(((S)-1-(7-Fluoro-1H-benzo[d]imidazol-2-yl)ethyl)amino)-1,4-dioxo-4-((S)-2-phenylpyrrolidin-1-yl)butan-2-yl)-2-oxaspiro[3.3]heptane-6-carboxamide] | 6.8 | 
Cc1cc(C(=O)N[C@@H](CC(=O)N2CCCC[C@@H]2C)C(=O)NC(C)c2nc3ccccc3[nH]2)no1 (stereo partly drawn) [CEN-35, N-((2S)-1-((1-(1H-Benzo[d]imidazol-2-yl)ethyl)amino)-4-((S)-2-methylpiperidin-1-yl)-1,4-dioxobutan-2-yl)-5-methylisoxazole-3-carboxamide] | 19.6 | 
Cc1cc(C(=O)N[C@@H](CC(=O)N2CCCC[C@@H]2C)C(=O)N[C@@H](C)c2ncc(-c3ccc(F)cc3F)[nH]2)no1 [CEN-94, N—((S)-1-(((S)-1-(5-(2,4-Difluorophenyl)-1H-imidazol-2-yl)ethyl)amino)-4-((S)-2-methylpiperidin-1-yl)-1,4-dioxobutan-2-yl)-5-methylisoxazole-3-carboxamide] | 5.5 | 
C[C@H](NC(=O)[C@H](CC(=O)N1CCC[C@@H]1c1ccccc1)NC(=O)CCCC(F)(F)F)c1nc2ccccc2o1 [CEN-66, N—((S)-1-(((S)-1-(Benzo[d]oxazol-2-yl)ethyl)amino)-1,4-dioxo-4-((R)-2-phenylpyrrolidin-1-yl)butan-2-yl)-5,5,5-trifluoropentanamide] | > 100 | 
C[C@H](NC(=O)[C@H](CC(=O)N1CCCC[C@@H]1C)NCC(=O)c1ccccc1)c1ncc(-c2ccc(F)cc2F)[nH]1 [CEN-103, (S)—N—((S)-1-(5-(2,4-Difluorophenyl)-1H-imidazol-2-yl)ethyl)-4-((S)-2-methylpiperidin-1-yl)-4-oxo-2-((2-oxo-2-phenylethyl)amino)butanamide] | 15.2 | 
Cc1cc(C(=O)N[C@@H](CC(=O)N2CCCC[C@@H]2C)C(=O)N[C@@H](C)c2ncc(-c3ccccc3F)[nH]2)no1 [CEN-118, N—((S)-1-(((S)-1-(5-(2-Fluorophenyl)-1H-imidazol-2-yl)ethyl)amino)-4-((S)-2-methylpiperidin-1-yl)-1,4-dioxobutan-2-yl)-5-methylisoxazole-3-carboxamide] | 15.8 | 
C[C@H](NC(=O)[C@H](CC(=O)N1CCCC[C@@H]1C)NC(=O)C1CC(C)(C)C1)c1nc2c(F)cccc2[nH]1 [CEN-39, N—((S)-1-(((S)-1-(4-Fluoro-1H-benzo[d]Imidazol-2-yl)ethyl)amino)-4-((S)-2-methylpiperidin-1-yl)-1,4-dioxobutan-2-yl)-3,3-dimethylcyclobutane-1-carboxamide] | 7.6 | 
C[C@H](NC(=O)[C@H](CC(=O)N1CCC[C@@H]1C)NC(=O)CCC(C)(C)C)c1nc2ccccc2[nH]1 [CEN-33, N—((S)-1-(((S)-1-(1H-Benzo[d]imidazol-2-yl)ethyl)amino)-4-((S)-2-methylpyrrolidin-1-yl)-1,4-dioxobutan-2-yl)-4,4-dimethylpentanamide] | 16.5 | 
